Active and inactive are the calls of the source.
What was measured:
[1] = system: H4; assay: Luminescence Cell-Based Dose Response HTS to Identify Activators of 5'UTR Stem-Loop Driven Prion Protein mRNA Translation in H4 Neuroglioblastoma Cells. [Related pubchem assays: 1829 (Project Summary), 1814 (Primary HTS)]; assay type: functional; settings: Homo sapiens
[2] = molecular target: T1, Protein RecA (Mycobacterium tuberculosis, UniProt P9WHJ3); assay: Fluorescence Cell-Free Homogeneous Dose Retest to Identify Inhibitors of RecA-Intein Splicing Activity. [Related pubchem assays (depositor defined):AID2097, AID2223, AID489010, AID492950]; assay type: functional
T1 sequence (P9WHJ3 whole entry): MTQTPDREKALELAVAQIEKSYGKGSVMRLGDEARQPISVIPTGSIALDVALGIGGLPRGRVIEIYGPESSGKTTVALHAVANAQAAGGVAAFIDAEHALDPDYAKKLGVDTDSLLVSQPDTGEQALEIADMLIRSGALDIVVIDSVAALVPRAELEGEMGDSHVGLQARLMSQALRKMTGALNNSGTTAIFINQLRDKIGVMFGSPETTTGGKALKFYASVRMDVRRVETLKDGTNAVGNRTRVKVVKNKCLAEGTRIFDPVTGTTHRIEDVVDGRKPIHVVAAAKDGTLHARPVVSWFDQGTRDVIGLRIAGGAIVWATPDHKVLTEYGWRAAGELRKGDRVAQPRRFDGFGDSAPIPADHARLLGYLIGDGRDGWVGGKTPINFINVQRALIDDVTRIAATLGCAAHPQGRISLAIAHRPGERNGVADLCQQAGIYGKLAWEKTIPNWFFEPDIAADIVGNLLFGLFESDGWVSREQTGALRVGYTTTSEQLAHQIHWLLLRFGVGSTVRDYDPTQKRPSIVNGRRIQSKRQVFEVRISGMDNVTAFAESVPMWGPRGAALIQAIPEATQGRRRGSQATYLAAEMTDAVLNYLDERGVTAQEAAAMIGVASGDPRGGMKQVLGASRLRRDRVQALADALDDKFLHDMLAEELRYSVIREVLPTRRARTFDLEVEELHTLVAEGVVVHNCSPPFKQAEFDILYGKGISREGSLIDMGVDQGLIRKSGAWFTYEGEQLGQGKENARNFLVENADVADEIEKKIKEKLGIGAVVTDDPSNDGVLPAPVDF

[3] = Luminescence Cell-Based Dose Response HTS to Identify Activators of Luciferase Translation or Activity in H4 […] Cells. [Related pubchem assays: 1829 (Project Summary), 1814 (Primary HTS)]; assay type: functional
[4] = molecular target: T2, Replicative DNA helicase DnaB (Mycobacterium tuberculosis, UniProt P9WMR3); assay: DnaB intein splicing inhibitors, dose response, biochemical, cell-free fluorescence (AID 449749); assay type: functional
T2 sequence (P9WMR3 whole entry): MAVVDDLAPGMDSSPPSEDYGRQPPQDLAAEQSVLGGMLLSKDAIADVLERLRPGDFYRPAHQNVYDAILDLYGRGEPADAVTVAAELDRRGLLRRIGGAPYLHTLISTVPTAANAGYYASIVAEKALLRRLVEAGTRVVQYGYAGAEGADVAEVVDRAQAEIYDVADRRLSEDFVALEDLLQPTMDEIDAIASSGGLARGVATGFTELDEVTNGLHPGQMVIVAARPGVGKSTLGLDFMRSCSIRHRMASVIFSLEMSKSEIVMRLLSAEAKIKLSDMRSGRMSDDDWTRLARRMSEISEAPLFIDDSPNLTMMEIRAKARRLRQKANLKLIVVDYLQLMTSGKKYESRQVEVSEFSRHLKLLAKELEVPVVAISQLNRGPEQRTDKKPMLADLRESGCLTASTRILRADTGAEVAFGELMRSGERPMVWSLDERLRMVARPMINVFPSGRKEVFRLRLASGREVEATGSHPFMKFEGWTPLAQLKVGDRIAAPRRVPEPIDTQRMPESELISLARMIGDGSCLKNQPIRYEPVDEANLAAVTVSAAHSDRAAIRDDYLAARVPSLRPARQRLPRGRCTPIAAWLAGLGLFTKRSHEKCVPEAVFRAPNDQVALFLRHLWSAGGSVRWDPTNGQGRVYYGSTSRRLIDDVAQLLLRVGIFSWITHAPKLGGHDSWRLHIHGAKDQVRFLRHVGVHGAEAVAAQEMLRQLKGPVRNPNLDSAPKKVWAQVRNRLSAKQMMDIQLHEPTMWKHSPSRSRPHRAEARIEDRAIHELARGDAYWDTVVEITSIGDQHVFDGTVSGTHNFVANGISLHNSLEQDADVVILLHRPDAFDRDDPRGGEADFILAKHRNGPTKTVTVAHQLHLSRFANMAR

[5] = HEp-2 cell cytotoxicity, dose response, cytotoxicity control for RSV inhibitor project, HTS (AID 2410); assay type: functional; settings: human respiratory syncytial virus
[6] = cells; assay type: functional, cell-based
[7] = cells; assay type: functional, cell-based; remark: listed apart in the source
[8] = molecular target: FAD-linked sulfhydryl oxidase ALR (Homo sapiens, UniProt P55789); assay: inhibitors of human ALR sulfhydryl oxidase, dose response, biochemical, H2O2 detection, luminescence, cherry-pick (AID 493248)
FAD-linked sulfhydryl oxidase ALR, sequence (P55789 whole entry, the tested form may be a part): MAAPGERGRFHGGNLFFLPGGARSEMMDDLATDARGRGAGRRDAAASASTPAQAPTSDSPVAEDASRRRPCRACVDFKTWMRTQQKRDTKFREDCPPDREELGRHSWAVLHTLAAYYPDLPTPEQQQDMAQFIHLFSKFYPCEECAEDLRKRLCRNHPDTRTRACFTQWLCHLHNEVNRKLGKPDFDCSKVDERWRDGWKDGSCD

[9] = molecular target: T3, Carboxy-terminal domain RNA polymerase II polypeptide A small phosphatase 1 (Homo sapiens, UniProt Q9GZU7); assay: inhibitors of CTDSP1, concentration-response testing, biochemical assay, absorbance-based, actives from ultra-high-throughput screening (AID 540297); assay type: functional
T3 sequence (Q9GZU7 whole entry): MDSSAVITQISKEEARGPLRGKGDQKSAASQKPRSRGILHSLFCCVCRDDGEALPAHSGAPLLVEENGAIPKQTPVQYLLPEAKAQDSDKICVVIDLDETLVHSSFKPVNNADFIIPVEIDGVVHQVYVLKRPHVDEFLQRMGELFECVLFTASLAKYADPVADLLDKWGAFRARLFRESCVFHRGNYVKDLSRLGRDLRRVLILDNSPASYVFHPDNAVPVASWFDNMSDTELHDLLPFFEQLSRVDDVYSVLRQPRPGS

[10] = cytotoxicity in HEK-293T cells, dose response, cytotoxicity control for TCR NF-kB inhibitor project, luminescence, T-cell screen hits (AID 489026); assay type: functional, cell-based;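 note: cells exposed to compound about 14 hours before the viability readout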

With CCOC(=O)c1c(C)oc2c1c1c(c3ccccc32)OCN(CCCC(=O)O)C1 the EC50 [1] was 11 µM (active), the EC50 [2] was 4.11 µM (active) and the EC50 [3] was 22.8 µM (active). The AC50 [4] was > 120 µM (inactive) and the CC50 [5] was 43.6 µM (active).
With COC(=O)c1[nH]c2ccccc2c1/C=C1\C(=O)NC(=O)N(c2cc(OC)ccc2OC)C1=O the EC50 [6] was 73.1 µM (active) and the EC50 [7] was > 350 µM (not active).
In the case of O=C(COC(=O)c1ccc2c(c1Cl)C(=O)c1ccccc1C2=O)NC1CC1, the EC50 [2] is reported as 12.9 µM (active) and the AC50 [4] is reported as 26.2 µM (active).
With O=C1CCC(C(=O)N2CCCC(Nc3ccc(F)cc3)C2)=NN1 (stereo not given) the AC50 [8] was 24.8 µM (active).
For COC(=O)C1C(=O)N2CCCSC2=C(C#N)C1c1cccs1 (stereo not given), the EC50 [6] was > 350 µM (not active) and the EC50 [7] was > 350 µM (not active).
For COc1cccc(C(=O)c2cn(CC(=O)NCc3ccco3)c3nc(C)ccc3c2=O)c1, the IC50 [9] was 11.2 µM (active).
In the case of Cc1noc(C)c1COc1ccc(C(=O)NNC(=O)c2ccccc2F)cc1, the IC50 [10] is reported as > 80 µM (inactive).
For CCN(CCNC(=O)Cn1cc2c(n1)CCCC2)c1ccccc1, the AC50 [8] was 2.46 µM (active).
For Nc1ncc(-c2ccccc2)c(-c2ccc(O)cc2O)n1, the AC50 [8] was 3.66 µM (active).
For COc1cccc(N2CCN(CC(=O)NC(C)c3ccccc3)CC2)c1 (stereo not given), the AC50 [8] was 2.02 µM (active).
For C#CCOc1ccc(Br)cc1C(c1c(C)n[nH]c1O)c1c(C)n[nH]c1O, the EC50 [2] was 1.03 µM (active) and the AC50 [4] was 0.973 µM (active).
With COc1ccc(N2CCN(c3ccc(N4C(=O)CC(C)C4=O)cc3[N+](=O)[O-])CC2)cc1 (stereo not given) the EC50 [6] was 41.1 µM (active) and the EC50 [7] was > 350 µM (not active).
For CCCc1n[nH]c2c1C(c1cccc(OC(=O)c3ccco3)c1)C(C#N)=C(N)O2 (stereo not given), the EC50 [2] was 4.91 µM (active) and the AC50 [4] was 5.48 µM (active).
With CCc1ccc(C2C(=O)c3ccccc3C2=O)cc1 the EC50 [6] was 30.8 µM (active) and the EC50 [7] was > 350 µM (not active).

From ChEMBL document CHEMBL1201862, “PubChem BioAssay data set” (2004)
